One series deals with Mus musculus. In words: Antinociceptive activity in albino Mus musculus (mouse) assessed as increase in latency for tail withdrawal at 20 mg/kg, po measured after 4 hr by thermal stimulus method relative to control. It is filed as functional.
In series [1] the test system is Rattus norvegicus. In words: Anti-inflammatory activity in albino Rattus norvegicus (rat) assessed as inhibition of carrageenan-induced paw edema at 25 mg/kg, po administered 1 hr prior to carrageenan-challenge measured after 1 to 3 hr relative to control. It is filed as functional. Background: The carrageenan paw model is a standard test of acute inflammation.
Series [2] in a line: Toxicity in ip dosed albino Mus musculus (mouse) measured after 24 hr. It is filed as organism-based. The following applies: in vivo, read-out: ALD50.
The nature of series [3]: Ulcerogenic activity in ip dosed fasted albino Rattus norvegicus (rat) measured after 8 hr. It is filed as toxicity, organism-based. The following applies: in vivo, read-out: UD50.
The test system of series [4] is Rattus norvegicus. Description: Anti-inflammatory activity in albino Rattus norvegicus (rat) assessed as inhibition of carrageenan-induced paw edema at 100 mg/kg, po administered 1 hr prior to carrageenan-challenge measured after 1 to 3 hr relative to control. It is filed as functional.
Series [5] deals with Rattus norvegicus. In words: Anti-inflammatory activity in albino Rattus norvegicus (rat) assessed as inhibition of carrageenan-induced paw edema at 50 mg/kg, po administered 1 hr prior to carrageenan-challenge measured after 1 to 3 hr relative to control. It is filed as functional.

A value given as a limit tells only on which side of the number the result lay.

In general, inhibition in vivo refers to the share of the control response that was lost under treatment. Regarding `CC1=C(C(=O)Nc2ccc(F)cc2)C(c2ccc(Cl)cc2)n2c(s/c(=C/c3ccccc3Cl)c2=O)=N1` (centres undefined), in the series with Mus musculus, the Activity is recorded as 63%. Further, the inhibition in vivo at 25 mg/kg in the series on Rattus norvegicus [1] is 16%.
On to `CC1=C(C(=O)Nc2ccc(F)cc2)C(c2ccc(Cl)cc2)n2c(s/c(=C/c3ccc(Cl)cc3Cl)c2=O)=N1` (centres undefined), for which the Activity in the series with Mus musculus was determined as 46%. Also, the inhibition in vivo at 25 mg/kg in the series with Rattus norvegicus [1] was determined as 14%.
For `CC1=C(C(=O)Nc2ccc(F)cc2)C(c2ccc(Cl)cc2)n2c(s/c(=C/c3ccccc3[N+](=O)[O-])c2=O)=N1` (centres undefined) the same measures were 82% and 16%.
For `CC1=C(C(=O)Nc2ccc(F)cc2)C(c2ccc(F)cc2)n2c(s/c(=C/c3ccc([N+](=O)[O-])cc3)c2=O)=N1` (centres undefined) the same measures were 121% and 30%.
In the case of `CC1=C(C(=O)Nc2ccc(F)cc2)C(c2ccc(F)cc2)n2c(s/c(=C/c3ccc(Cl)cc3)c2=O)=N1` (centres undefined), the LD50 at 24 h in series [2] was above 1000 mg/kg. Further, in series [3], the TD50 at 8 h was determined as 175 mg/kg. The Activity in the series with Mus musculus was 189%. The inhibition in vivo at 100 mg/kg with Rattus norvegicus [4] was 78%. Moreover, the inhibition in vivo at 50 mg/kg in the series on Rattus norvegicus [5] was 50%. The inhibition in vivo at 25 mg/kg in the series with Rattus norvegicus [1] worked out at 47%.
Take `CC1=C(C(=O)Nc2ccc(F)cc2)C(c2ccccc2[N+](=O)[O-])n2c(s/c(=C/c3ccccc3Cl)c2=O)=N1` (centres undefined): the Activity in the series with Mus musculus came to 72%. Besides, in the series with Rattus norvegicus [1], the inhibition in vivo at 25 mg/kg came to 12%.
As for `CC1=C(C(=O)Nc2ccc(F)cc2)C(c2ccccc2[N+](=O)[O-])n2c(s/c(=C/c3ccc(Br)cc3)c2=O)=N1` (centres undefined), the Activity with Mus musculus is 100%. Moreover, in the series with Rattus norvegicus [1], the inhibition in vivo at 25 mg/kg came to 16%.
For `CC1=C(C(=O)Nc2ccc(F)cc2)C(c2ccc(F)cc2)n2c(s/c(=C/c3ccccc3Cl)c2=O)=N1` (centres undefined) the same measures were 119% and 19%.
Turning to `CC1=C(C(=O)Nc2ccc(F)cc2)C(c2ccc(Cl)cc2)n2c(s/c(=C/c3ccc(F)cc3)c2=O)=N1` (centres undefined), the LD50 at 24 h in series [2] was above 1000 mg/kg. In addition, the TD50 at 8 h in series [3] was determined as 240 mg/kg. For the same molecule, the Activity with Mus musculus worked out at 172%. In the series with Rattus norvegicus [4], the inhibition in vivo at 100 mg/kg was 80%. For the same molecule, the inhibition in vivo at 50 mg/kg in the series with Rattus norvegicus [5] turned out to be 60%. Moreover, the inhibition in vivo at 25 mg/kg in the series with Rattus norvegicus [1] was determined as 44%.
Consider `CC1=C(C(=O)Nc2ccc(F)cc2)C(c2ccc(Cl)cc2)n2c(s/c(=C/c3ccc(Br)cc3)c2=O)=N1` (centres undefined), for which the Activity in the series on Mus musculus is given as 76%. For the same molecule, in the series with Rattus norvegicus [1], the inhibition in vivo at 25 mg/kg amounted to 35%.
For `COc1ccc(/C=c2/sc3n(c2=O)C(c2ccc(Br)cc2)C(C(=O)Nc2ccc(F)cc2)=C(C)N=3)cc1OC` (centres undefined) the same measures were 23% and 8%.
For `CC1=C(C(=O)Nc2ccc(F)cc2)C(c2ccc(Br)cc2)n2c(s/c(=C/c3ccc(Cl)cc3Cl)c2=O)=N1` (centres undefined) the same measures were 31% and 14%.
Turning to `CC1=C(C(=O)Nc2ccc(F)cc2)C(c2ccc(Br)cc2)n2c(s/c(=C/c3ccccc3)c2=O)=N1` (centres undefined), in the series on Mus musculus, the Activity amounted to 76%. The inhibition in vivo at 25 mg/kg in the series with Rattus norvegicus [1] was found to be 5%.
The matching figures for `CC1=C(C(=O)Nc2ccc(F)cc2)C(c2ccc(Br)cc2)n2c(s/c(=C/c3ccc(Cl)cc3)c2=O)=N1` (centres undefined): 104% and 25%.
For `CC1=C(C(=O)Nc2ccc(F)cc2)C(c2ccc(Br)cc2)n2c(s/c(=C/c3ccc(C)cc3)c2=O)=N1` (centres undefined) the same measures were 72% and 11%.
The matching figures for `CC1=C(C(=O)Nc2ccc(F)cc2)C(c2ccc([N+](=O)[O-])cc2)n2c(s/c(=C/c3ccc(Cl)cc3Cl)c2=O)=N1` (centres undefined): 121% and 17%.
`CC1=C(C(=O)Nc2ccc(F)cc2)C(c2ccc([N+](=O)[O-])cc2)n2c(s/c(=C/c3ccc(Cl)cc3)c2=O)=N1` (centres undefined): the Activity with Mus musculus is 104%. Moreover, the inhibition in vivo at 25 mg/kg with Rattus norvegicus [1] was 23%.
As for `COc1ccc(/C=c2/sc3n(c2=O)C(c2ccc([N+](=O)[O-])cc2)C(C(=O)Nc2ccc(F)cc2)=C(C)N=3)cc1` (centres undefined), in the series on Mus musculus, the Activity was determined as 46%. Further, the inhibition in vivo at 25 mg/kg with Rattus norvegicus [1] is 12%.
For `CC1=C(C(=O)Nc2ccc(F)cc2)C(c2ccc([N+](=O)[O-])cc2)n2c(s/c(=C/c3ccccc3Cl)c2=O)=N1` (centres undefined) the same measures were 140% and 19%.
For `CC1=C(C(=O)Nc2ccc(F)cc2)C(c2ccc([N+](=O)[O-])cc2)n2c(s/c(=C/c3ccccc3)c2=O)=N1` (centres undefined) the same measures were 93% and 7%.
On to `O=C(O)Cc1ccccc1Nc1c(Cl)cccc1Cl` [DICLOFENAC], for which the Activity in the series on Mus musculus was determined as 274%.
Turning to `CCCCC1C(=O)N(c2ccccc2)N(c2ccccc2)C1=O` [PHENYLBUTAZONE], in series [2], the LD50 at 24 h was above 1000 mg/kg. For the same molecule, the TD50 at 8 h in series [3] came to 70.2 mg/kg. Also, the inhibition in vivo at 100 mg/kg in the series on Rattus norvegicus [4] amounted to 70%. For the same molecule, the inhibition in vivo at 50 mg/kg in the series with Rattus norvegicus [5] came out at 55%. For the same molecule, the inhibition in vivo at 25 mg/kg in the series with Rattus norvegicus [1] is 43%.

For the origin of these results see ChEMBL document CHEMBL3046824, “Synthesis and pharmacological evaluation of newer thiazolo [3,2-a] pyrimidines for anti-inflammatory and antinociceptive activity” (Med Chem Res, 2010).
